# Measured values taken from the supplement of paper PMC11451515.
# Tested on: NOMO1
# Test: cell viability relative to DMSO control; higher = less cytotoxic
# Conditions: 48 h
# Outline: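 Viability is expressed as a percentage of DMSO wells within each plate, and cell-free wells serve as background. Seeding densities in the 1536-well plates (5 μl) were 500 cells/well for NOMO1 or SEM leukemia cells and 1000 cells/well for P12-Ichikawa. Each line was adapted for at least four passages in each medium. Library compounds in DMSO were pin-dosed at 47 μM to 0.79 nM (11 points, threefold), and CellTiter-Glo One luminescence was read after 48 h at 37°C.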
# [1] = HPLM + 10% dialyzed FBS, 0.000781 µM
# [2] = HPLM + 10% dialyzed FBS, 0.00234 µM
# [3] = HPLM + 10% dialyzed FBS, 0.00702 µM
# [4] = HPLM + 10% dialyzed FBS, 0.0211 µM
# [5] = HPLM + 10% dialyzed FBS, 0.0632 µM
# [6] = HPLM + 10% dialyzed FBS, 0.19 µM
# [7] = HPLM + 10% dialyzed FBS, 0.569 µM
# [8] = HPLM + 10% dialyzed FBS, 1.71 µM
# [9] = HPLM + 10% dialyzed FBS, 5.12 µM
# [10] = HPLM + 10% dialyzed FBS, 15.4 µM
# [11] = HPLM + 10% dialyzed FBS, 46.1 µM
# [12] = RPMI 5 mM glucose + 10% FBS, 0.000781 µM
# [13] = RPMI 5 mM glucose + 10% FBS, 0.00234 µM
# [14] = RPMI 5 mM glucose + 10% FBS, 0.00702 µM
# [15] = RPMI 5 mM glucose + 10% FBS, 0.0211 µM
# [16] = RPMI 5 mM glucose + 10% FBS, 0.0632 µM
# [17] = RPMI 5 mM glucose + 10% FBS, 0.19 µM
# [18] = RPMI 5 mM glucose + 10% FBS, 0.569 µM
# [19] = RPMI 5 mM glucose + 10% FBS, 1.71 µM
# [20] = RPMI 5 mM glucose + 10% FBS, 5.12 µM
# [21] = RPMI 5 mM glucose + 10% FBS, 15.4 µM
# [22] = RPMI 5 mM glucose + 10% FBS, 46.1 µM
# [23] = RPMI 5 mM glucose + 10% dialyzed FBS, 0.000781 µM
# [24] = RPMI 5 mM glucose + 10% dialyzed FBS, 0.00234 µM
# [25] = RPMI 5 mM glucose + 10% dialyzed FBS, 0.00702 µM
# [26] = RPMI 5 mM glucose + 10% dialyzed FBS, 0.0211 µM
# [27] = RPMI 5 mM glucose + 10% dialyzed FBS, 0.0632 µM
# [28] = RPMI 5 mM glucose + 10% dialyzed FBS, 0.19 µM
# [29] = RPMI 5 mM glucose + 10% dialyzed FBS, 0.569 µM
# [30] = RPMI 5 mM glucose + 10% dialyzed FBS, 1.71 µM
# [31] = RPMI 5 mM glucose + 10% dialyzed FBS, 5.12 µM
# [32] = RPMI 5 mM glucose + 10% dialyzed FBS, 15.4 µM
# [33] = RPMI 5 mM glucose + 10% dialyzed FBS, 46.1 µM
Structure (SMILES),cell viability [1],cell viability [2],cell viability [3],cell viability [4],cell viability [5],cell viability [6],cell viability [7],cell viability [8],cell viability [9],cell viability [10],cell viability [11],cell viability [12],cell viability [13],cell viability [14],cell viability [15],cell viability [16],cell viability [17],cell viability [18],cell viability [19],cell viability [20],cell viability [21],cell viability [22],cell viability [23],cell viability [24],cell viability [25],cell viability [26],cell viability [27],cell viability [28],cell viability [29],cell viability [30],cell viability [31],cell viability [32],cell viability [33]
CC(C)(C)OC(=O)CN(Cc1ccc(Cl)cc1)Cc1ccc([N+](=O)[O-])s1,109%,95.6%,107%,96.8%,101%,99.6%,91.1%,87.5%,92.7%,75.3%,40.7%,88.9%,98.6%,95.4%,87%,93.5%,105%,96.3%,92.9%,89.7%,81.3%,66.5%,107%,97.7%,95.7%,96.6%,107%,94%,103%,102%,95.5%,87%,80.1%
ClC1=CC=C(CCCOC/2=N/NC(=O)C(=C2NCC3=CN=CC=C3)/Br)C=C1,124%,117%,150%,115%,115%,118%,97.9%,75.4%,38.8%,15.9%,7.76%,–,–,–,–,–,–,–,–,–,–,–,121%,120%,127%,112%,111%,109%,106%,106%,66.2%,27.8%,12.9%
CN(C)Cc1ccc(-c2nc3cccc4c3n2CCNC4=O)cc1,91.1%,99.5%,115%,116%,124%,107%,109%,121%,129%,112%,99.4%,87.2%,108%,94.7%,103%,98.3%,102%,111%,106%,97.2%,103%,104%,98%,102%,90.8%,110%,115%,119%,110%,116%,126%,124%,118%
CC(=O)N1CCN(c2ccc(OCc3nn(C)c(C)c3-c3cccc4c(CCCOc5cc(C)c(Cl)c(C)c5)c(C(=O)O)n(Cc5cccnc5)c34)cc2)CC1,111%,108%,132%,114%,126%,130%,120%,130%,131%,120%,84.6%,111%,115%,124%,150%,130%,136%,146%,126%,120%,134%,94.6%,115%,112%,122%,135%,135%,133%,139%,142%,156%,137%,124%
NC(=O)c1ccc(-c2nc(-c3ccc4c(c3)OCCO4)c(-c3ccccn3)[nH]2)cc1,–,–,–,–,–,–,–,–,–,–,–,105%,104%,104%,106%,118%,119%,121%,114%,122%,107%,114%,121%,119%,119%,118%,134%,113%,131%,125%,114%,116%,119%
Nc1ccccc1NC(=O)c1ccc(CNc2nccc(-c3cccnc3)n2)cc1,111%,115%,117%,118%,119%,117%,105%,72.1%,23.4%,9.43%,9.03%,90.9%,113%,103%,103%,122%,114%,97.8%,83.2%,27.2%,9.84%,8.73%,108%,117%,115%,119%,132%,114%,106%,74.7%,24.2%,12.2%,10.7%
CN(C)CCOC(c1ccccc1)c1ccccc1,94.4%,84%,105%,116%,111%,112%,112%,113%,109%,104%,83.5%,112%,111%,106%,121%,117%,106%,115%,107%,107%,101%,53.6%,94.6%,112%,101%,113%,122%,111%,110%,109%,104%,119%,64.6%
COc1cc2nccc(Oc3ccc(NC(=O)C4(C(=O)Nc5ccc(F)cc5)CC4)cc3)c2cc1OC,113%,114%,112%,116%,94.2%,101%,116%,104%,93.7%,69.8%,32.3%,95.6%,124%,101%,114%,103%,104%,95.1%,107%,96.2%,102%,64.8%,102%,99.2%,110%,107%,111%,98.2%,109%,98%,95.5%,71.7%,47.1%
COc1ccc(Cc2nccc3cc(OC)c(OC)cc23)cc1OC,–,–,–,–,–,–,–,–,–,–,–,115%,118%,124%,117%,105%,108%,138%,110%,103%,114%,23.3%,–,–,–,–,–,–,–,–,–,–,–
COc1cc2nccc(Oc3ccc(NC(=O)Nc4cc(C)on4)c(Cl)c3)c2cc1OC,113%,117%,117%,138%,108%,116%,121%,130%,115%,129%,87.8%,–,–,–,–,–,–,–,–,–,–,–,124%,124%,119%,114%,112%,115%,111%,136%,112%,120%,70.9%
CC(C)(C)/[N+]([O-])=C/c1ccc([S+](=O)([O-])[O][Na])cc1[S+](=O)([O-])[O][Na],97.5%,102%,111%,115%,121%,132%,121%,128%,129%,119%,127%,105%,118%,119%,126%,125%,118%,125%,128%,111%,138%,133%,94%,102%,111%,114%,111%,120%,127%,109%,109%,123%,120%
CCOC(=O)C/1=C(C)/NC(=S)NC1C2=CC=CC(=C2)O (centres undefined),–,–,–,–,–,–,–,–,–,–,–,103%,124%,117%,128%,123%,47.3%,22.7%,24.3%,19.3%,22.3%,17.1%,117%,120%,133%,126%,132%,99.5%,33.2%,32.1%,22.9%,26.4%,23.3%
CNC(=O)[C@H](Cc1ccccc1)NC(=O)[C@H](CC(C)C)[C@H](CSc1cccs1)C(=O)NO,79.9%,100%,91.7%,101%,86.8%,93.7%,97.8%,94.7%,89.4%,77.8%,79.7%,85.6%,76.9%,73.4%,81.1%,93.5%,87.7%,87.2%,95.4%,75%,78.3%,91.8%,78.9%,89%,81.5%,96.7%,87.6%,89.1%,101%,92.8%,83%,70.8%,81.3%
O=C1\C=C(/OC2=C1C=CC=C2C3=CC=CC=C3)N4CCOCC4,95.4%,99.2%,99.9%,90.4%,91.9%,90.4%,86.7%,63.9%,82.5%,66.5%,75.6%,82.4%,88%,89.1%,84.7%,79.9%,83%,81.7%,77%,82.4%,80.9%,76%,75.2%,86.5%,81.7%,83.9%,87.4%,79.7%,82.3%,66.1%,89.8%,79.1%,88.1%
NC(=O)N1c2ccccc2CC(=O)c2ccccc21,115%,124%,121%,126%,123%,136%,128%,137%,126%,143%,163%,–,–,–,–,–,–,–,–,–,–,–,–,–,–,–,–,–,–,–,–,–,–
CO[C@H]1C[C@@H]2CC[C@@H](C)[C@@](O)(O2)C(=O)C(=O)N2CCCC[C@H]2C(=O)O[C@H]([C@H](C)C[C@@H]2CC[C@@H](OP(C)(C)=O)[C@H](OC)C2)CC(=O)[C@H](C)/C=C(\C)[C@@H](O)[C@@H](OC)C(=O)[C@H](C)C[C@H](C)/C=C/C=C/C=C/1C,110%,114%,109%,116%,106%,113%,102%,105%,96.7%,97%,94.5%,–,–,–,–,–,–,–,–,–,–,–,122%,113%,118%,115%,117%,121%,120%,125%,124%,103%,120%
